Where a name gives a salt, the structure may show the parent alone. Non-standard residues stand in square brackets, D forms with d. Residues, ends and D or L forms follow the SMILES beside them. *: point of attachment. Sta = CC(C)C[C@H](N)[C@@H](O)CC(=O)O; Isovaleryl = CC(C)CC(=O)*
tested on: hPSC-SCs; settings: not given

Row | Compound | z.score.t
1 | CCCCc1ccc2[nH]c(NC(=O)OC)nc2c1 [Parbendazole] | −1.543
2 | C[N+]1(CCCCC[N+]2(C)CCCC2)CCCC1.O=C([O-])C(O)C(O)C(=O)O.O=C([O-])C(O)C(O)C(=O)O [Pentolinium bitartrate] | 0.2038
3 | CC(C)CC(=O)N[C@H](C(=O)N[C@H](C(=O)N[C@@H](CC(C)C)[C@@H](O)CC(=O)N[C@@H](C)C(=O)N[C@@H](CC(C)C)[C@@H](O)CC(=O)O)C(C)C)C(C)C [Pepstatin A] (Isovaleryl-VV[Sta]A[Sta]-OH) | −1.319
4 | CC(COc1ccccc1)N(CCCl)Cc1ccccc1 (stereo not drawn) [Phenoxybenzamine hydrochloride] | 0.03421
5 | CC(N)C(O)c1ccccc1 (stereo not drawn) [Phenylpropanolamine hydrochloride] | −0.8304
6 | C=C(C)[C@@H]1[C@H]2OC(=O)[C@@H]1[C@]1(O)C[C@H]3O[C@]34C(=O)O[C@H]2[C@]14C [Picrotoxinin] | 1.281
7 | CCN1CCCC(OC(=O)C(c2ccccc2)c2ccccc2)C1 (stereo not drawn) [Piperidolate hydrochloride] | −1.025
8 | COc1cc(/C=C/C(=O)N2CCC=CC2=O)cc(OC)c1OC [Piperlongumine] | −2.024
9 | COc1cc([C@@H]2c3cc4c(cc3[C@H](O)[C@H]3COC(=O)[C@H]23)OCO4)cc(OC)c1OC [Podophyllotoxin] | −2.152
10 | C[n+]1ccccc1/C=N/O [Pralidoxime chloride] | −0.411

same assay, conditions: HTS viability of hPSC-SCs in the presence of 30 mM glucose; Prestwick library; Table S4

Row | Compound | z.score.t
11 | CC(=O)O[C@H]1C[C@@H]2CC[C@@H]3[C@H](CC[C@@]4(C)[C@H]3C[C@H]([N+]3(C)CCCCC3)[C@@H]4OC(C)=O)[C@@]2(C)C[C@@H]1[N+]1(C)CCCCC1 [Pancuronium bromide] | 0.1543
12 | CC(C)(CO)[C@@H](O)C(=O)NCCCO [Panthenol (D)] | 0.6517
13 | CC(C)(CO)[C@@H](O)C(=O)NCCC(=O)O [Pantothenic acid calcium salt monohydrate] | −0.9817
14 | COc1ccc(Cc2nccc3cc(OC)c(OC)cc23)cc1OC [Papaverine hydrochloride] | 0.1556
15 | C#CCN(C)Cc1ccccc1 [Pargyline hydrochloride] | 0.7789
16 | NC[C@@H]1O[C@H](O[C@H]2[C@@H](O)[C@H](O[C@@H]3[C@@H](O)[C@H](N)C[C@H](N)[C@H]3O[C@H]3O[C@H](CO)[C@@H](O)[C@H](O)[C@H]3N)O[C@@H]2CO)[C@H](N)[C@@H](O)[C@@H]1O [Paromomycin sulfate] | −1.074
17 | Fc1ccc([C@@H]2CCNC[C@H]2COc2ccc3c(c2)OCO3)cc1 [Paroxetine Hydrochloride] | −1.138
18 | CN1C(C)(C)CCCC1(C)C [Pempidine tartrate] | −0.5583
19 | CC(C)(C)NC[C@H](O)COc1ccccc1C1CCCC1 [Penbutolol sulfate] | −0.9376
20 | N=C(N)c1ccc(OCCCCCOc2ccc(C(=N)N)cc2)cc1 [Pentamidine isethionate] | −0.8129
21 | O=C(O)CN(CCN(CC(=O)O)CC(=O)O)CCN(CC(=O)O)CC(=O)O [Pentetic acid] | −0.3461
22 | CC(=O)CCCCn1c(=O)c2c(ncn2C)n(C)c1=O [Pentoxifylline] | 1.045
23 | C1CCc2nnnn2CC1 [Pentylenetetrazole] | 1.171
24 | CCCN1C[C@H](CSC)C[C@@H]2c3cccc4[nH]cc(c34)C[C@H]21 [Pergolide mesylate] | 0.1298
25 | C1CCC(C(CC2CCCCN2)C2CCCCC2)CC1 (stereo not drawn) [Perhexiline maleate] | −1.682
26 | CCC[C@H](N[C@@H](C)C(=O)N1[C@H](C(=O)O)C[C@@H]2CCCC[C@@H]21)C(=O)OCC [Perindopril] | 2.067
27 | OCCN1CCN(CCCN2c3ccccc3Sc3ccc(Cl)cc32)CC1 [Perphenazine] | −1.746
28 | CCOc1ccc(NC(C)=O)cc1 [Phenacetin] | 0.8023
29 | Nc1ccc(/N=N/c2ccccc2)c(N)n1 [Phenazopyridine hydrochloride] | 1.999
30 | NNCCc1ccccc1 [Phenelzine sulfate] | 0.852
31 | CC(Oc1ccccc1)C(=O)N[C@@H]1C(=O)N2[C@@H]1SC(C)(C)[C@@H]2C(=O)O (stereo partly drawn) [Phenethicillin potassium salt] | 0.7158
32 | [H]/N=C(/N)N/C(=N/[H])NCCc1ccccc1 [Phenformin hydrochloride] | 0.9109
33 | O=C1c2ccccc2C(=O)C1c1ccccc1 [Phenindione] | 0.7312

Row | Compound | z.score.t
34 | CN(C)CCC(c1ccccc1)c1ccccn1 (stereo not drawn) [Pheniramine maleate] | −0.09426
35 | CN1C(=O)CC(c2ccccc2)C1=O (stereo not drawn) [Phensuximide] | 1.669
36 | Cc1ccc(N(CC2=NCCN2)c2cccc(O)c2)cc1 [Phentolamine hydrochloride] | −0.1241
37 | O=C(O)c1ccccc1C(=O)Nc1ccc(S(=O)(=O)Nc2nccs2)cc1 [Phthalylsulfathiazole] | −1.317
38 | COc1ccc(C(=O)NCc2cccnc2)cc1C(=O)NCc1cccnc1 [Picotamide monohydrate] | −0.04944
39 | CC[C@@H]1C(=O)OC[C@@H]1Cc1cncn1C [Pilocarpine nitrate] | 1.139
40 | CN1CCC(=C2c3ccccc3Sc3ccccc32)CC1 [Pimethixene maleate] | −1.233
41 | O=c1[nH]c2ccccc2n1C1CCN(CCCC(c2ccc(F)cc2)c2ccc(F)cc2)CC1 [Pimozide] | −1.173
42 | CC(N/C(=N\C#N)Nc1ccncc1)C(C)(C)C (stereo not drawn) [Pinacidil] | −0.03449
43 | CC(C)NCC(O)COc1cccc2[nH]ccc12 (stereo not drawn) [Pindolol] | 0.2038
44 | CCn1cc(C(=O)O)c(=O)c2cnc(N3CCNCC3)nc21 [Pipemidic acid] | 0.4318
45 | CC[N+]1(C)CCCC(OC(=O)C(O)(c2ccccc2)c2ccccc2)C1 (stereo not drawn) [Pipenzolate bromide] | 0.4318
46 | CC(=O)c1ccc2c(c1)N(CCCN1CCC(CCO)CC1)c1ccccc1S2 [Piperacetazine] | −1.148
47 | CCN1CCN(C(=O)N[C@@H](C(=O)N[C@@H]2C(=O)N3[C@@H]2SC(C)(C)[C@@H]3C(=O)O)c2ccccc2)C(=O)C1=O [Piperacillin sodium salt] | 0.8465
48 | O=C(/C=C/C=C/c1ccc2c(c1)OCO2)N1CCCCC1 [Piperine] | −0.1003
49 | NC(=O)CN1CCCC1=O [Piracetam] | 1.595
50 | Cc1nc2ccccn2c(=O)c1CCN1CCC(C(=O)c2ccc(F)cc2)CC1 [Pirenperone] | −0.07901
51 | CN1CCN(CC(=O)N2c3ccccc3C(=O)Nc3cccnc32)CC1 [Pirenzepine dihydrochloride] | −0.07933
52 | NS(=O)(=O)c1cc(C(=O)O)cc(N2CCCC2)c1Oc1ccccc1 [Piretanide] | −0.9376
53 | c1cnc(N2CCN(Cc3ccc4c(c3)OCO4)CC2)nc1 [Piribedil hydrochloride] | −1.291
54 | CCn1cc(C(=O)O)c(=O)c2cnc(N3CCCC3)nc21 [Piromidic acid] | 0.453
55 | CN1C(C(=O)Nc2ccccn2)=C(O)c2ccccc2S1(=O)=O [Piroxicam] | −0.4161
56 | CC(C)(C)C(=O)OCOC(=O)[C@@H]1N2C(=O)[C@@H](NC(=O)[C@H](N)c3ccccc3)[C@H]2SC1(C)C [Pivampicillin] | −0.2187

Row | Compound | z.score.t
57 | CC(C)(C)C(=O)OCOC(=O)[C@@H]1N2C(=O)[C@@H](/N=C/N3CCCCCC3)[C@H]2SC1(C)C [Pivmecillinam hydrochloride] | 0.0827
58 | CC(=O)Nc1ccc(OCC(O)CNC(C)C)cc1 (stereo not drawn) [Practolol] | −0.3112
59 | CCCCOc1ccc(OCCCN2CCOCC2)cc1 [Pramoxine hydrochloride] | −1.058
60 | O=C(C1CCCCC1)N1CC(=O)N2CCc3ccccc3C2C1 (stereo not drawn) [Praziquantel] | −0.5553
61 | COc1cc2nc(N3CCN(C(=O)c4ccco4)CC3)nc(N)c2cc1OC [Prazosin hydrochloride] | −0.496
62 | CCOC(=O)O[C@]1(C(=O)COC(=O)CC)CC[C@H]2[C@@H]3CCC4=CC(=O)C=C[C@]4(C)[C@H]3[C@@H](O)C[C@@]21C [Prednicarbate] | −0.7266
63 | C[C@]12C=CC(=O)C=C1CC[C@@H]1[C@@H]2[C@@H](O)C[C@@]2(C)[C@H]1CC[C@]2(O)C(=O)CO [Prednisolone] | 1.287
64 | C[C@]12C=CC(=O)C=C1CC[C@@H]1[C@@H]2C(=O)C[C@@]2(C)[C@H]1CC[C@]2(O)C(=O)CO [Prednisone] | −0.6093
65 | CC(=O)[C@H]1CC[C@H]2[C@@H]3CC=C4C[C@@H](O)CC[C@]4(C)[C@H]3CC[C@]12C [Pregnenolone] | −0.6864
66 | CCCNC(C)C(=O)Nc1ccccc1C (stereo not drawn) [Prilocaine hydrochloride] | 1.984
67 | COc1cc(NC(C)CCCN)c2ncccc2c1 (stereo not drawn) [Primaquine diphosphate] | −1.784
68 | CCC1(c2ccccc2)C(=O)NCNC1=O [Primidone] | 0.2582
69 | CCCC(C(=O)OCCN(CC)CC)(c1ccccc1)c1ccccc1 [Proadifen hydrochloride] | −1.138
70 | CCCN(CCC)S(=O)(=O)c1ccc(C(=O)O)cc1 [Probenecid] | −0.3319
71 | CC(C)(Sc1cc(C(C)(C)C)c(O)c(C(C)(C)C)c1)Sc1cc(C(C)(C)C)c(O)c(C(C)(C)C)c1 [Probucol] | 0.1344
72 | CCN(CC)CCNC(=O)c1ccc(N)cc1 [Procainamide hydrochloride] | −0.2904
73 | CCN(CC)CCOC(=O)c1ccc(N)cc1 [Procaine hydrochloride] | 0.5587
74 | CNNCc1ccc(C(=O)NC(C)C)cc1 [Procarbazine hydrochloride] | −0.01802
75 | CN1CCN(CCCN2c3ccccc3Sc3ccc(Cl)cc32)CC1 [Prochlorperazine dimaleate] | −0.7775
76 | OC(CCN1CCCC1)(c1ccccc1)C1CCCCC1 (stereo not drawn) [Procyclidine hydrochloride] | −0.0788
77 | CC(=O)[C@H]1CC[C@H]2[C@@H]3CCC4=CC(=O)CC[C@]4(C)[C@H]3CC[C@]12C [Progesterone] | 0.1767
78 | CCCN(CCC)C(=O)C(CCC(=O)O)NC(=O)c1ccccc1 (stereo not drawn) [Proglumide] | −0.8991
